Where two headings read alike, the source gives them in different places.
Legend:
[1] = target: LPA2 receptors from the rhesus (Macaca mulatta, UniProt I2CXV3); assay: Calcium-mobilization assay (FURA-2), rhesus LPA2; type: cell-based
Method: (§1) We investigated structure-activity relationships across species, LPAR subtypes and between Rx100 and two known process impurities encountered in manufacture: Rx103 (‘E’ isomer) and Rx200 (oleyl phosphate and impurity, which can be an Rx100 degradant along with oleyl alcohol). Rx100, Rx103, Rx200 and native LPA were investigated at different human LPAR subtypes. In addition, the activity of these compounds was evaluated at LPA2 receptors from the rhesus, rat and mouse species. Human LPA1/2/3 subtypes were transfected into mouse embryonic fibroblasts (MEF) or rat hepatoma cells (RH7777)—both of which are normally non-responsive or null to LPA. Human LPA4 was transfected into Chinese hamster ovary (CHO) cells and LPA5 into the B103 neuroblastoma cell line. […] The B103 rat neuroblastoma cell line is endogenously nonresponsive to LPA but expresses heterologous LPA5 receptors well. […] LPAR activation elicits a G-protein-mediated transient rise in intracellular calcium level that is proportional to the concentration of LPA applied. The intracellular calcium level was quantified by the calcium-selective fluorescent indicator FURA-2 (e.g., increased intracellular calcium surge=increased fluorescence).

Human LPA2 = Human LPA2 (Homo sapiens, UniProt Q9HBW0); assay: Calcium-mobilization assay (FURA-2), human LPA2 transfected cells; type: cell-based; design: expressed in transfected cells; host or cells: mouse embryonic fibroblasts (MEF) or rat hepatoma RH7777
Method: as §1

[2] = tested on: male Rhesus macaque Animal Model of GI-ARS; assay: Survival after partial body irradiation, male Rhesus macaque Animal Model of GI-ARS; type: in vivo
Method: Using a partial body irradiation (tibial sparing) animal model in the female C57BL/6 mice, we tested the survival advantages conferred by GMP Rx100.L-Lysine salt. As a result, when administered at 0.3 to 3 mg/kg/12 h×6 doses starting at +24 hours after exposure to 15.5 to 15.7 Gy from a ^137Cesium irradiator which otherwise reliably produces an LD70-90/10 (in 10 days, 70-90% mice die after irradiation), the mortality was reduced by 20% to 50%. When administered at 0.1 mg/kg/day×6 doses in a partial body irradiation Animal Model in 19 male Rhesus macaque, a 37% increase in survival at a normally LD70/34 dose of X-ray radiation was observed. By allometric scaling using body surface area, these lowest effective doses translate to 0.02 mg/kg/day and to 0.03 mg/kg/day in humans, respectively.
(§2) These Animal Model studies were all conducted using partial body irradiation (PBI) with tibial bone marrow sparing except the earliest study which was performed with Total Abdominal Irradiation (TAI). The male Rhesus macaque model was developed by MacVittie. The female inbred murine PBI GI-ARS Animal Model was developed by the inventors. […] Differences in radiation sensitivity by gender in rodent species are well appreciated. We are not aware of PBI GI-ARS models other than these that meet criteria required to conduct a prospective, blinded, controlled, randomized study of efficacy.

[3] = tested on: female murine Animal Model of GI-ARS (TAI); assay: Survival after total abdominal irradiation (TAI), murine model of GI-ARS (UTHSC, 2010); type: in vivo; conditions: UTHSC 2010 (TAI), 0.1 mg/kg, start +24, 15.0 Gy, non-GLP
Method: as §2

Human LPA4 = target: T1, Human LPA4 (Homo sapiens, UniProt Q99677); assay: Calcium-mobilization assay (FURA-2), human LPA4 in CHO cells; type: cell-based
T1 construct: expressed in transfected cells; host or cells: CHO
Method: as §1

cynomolgus monkeys = assay: Single-dose range-finding and 7-day repeat-dose toxicity in monkeys; type: in vivo
Method: In the first phase of the range-finding monkey study, one male and one female cynomolgus monkeys received single subcutaneous doses of Rx100.Lysine at 0.3, 1, 3, 10, 25 and 75 mg/kg of free acid. The vehicle for all doses was Sterile water for injection with 10 mM L-histidine. In the 7-day repeat-dose phase, two males and females were dosed subcutaneously at 10 mg/kg/day. Parameters evaluated included clinical signs, body weight, food consumption, and clinical and anatomic pathology. […] Animals were subsequently sacrificed. […] No effects on body weights were seen.

Male Sprague-Dawley rats = assay: Respiratory system safety pharmacology (plethysmograph); type: in vivo
Method: Male Sprague-Dawley rats (n=6/group) were administered Rx100.lysine as a single oral (gavage) doses of 0 (10 mM histidine in sterile water for injection, USP), 1.81, 6.33, and 18.1 mg/kg and monitored for respiratory function. Animals were placed in a plesthymograph and monitored at pre-dose and for consecutive 30 minute averages beginning 30 minutes postdose through 6 hours postdose and again at 24 hours postdose. Parameters evaluated included tidal volume, respiratory rate and minute volume. […] It was concluded that there were no adverse effects on the respiratory system in rats at doses of 1.81 mg/kg.

[4] = Solubility by incremental addition method in water or simulated formulation solvent
[5] = UC Davis 2011, Rhesus (♂), 0.1 mg/kg (q24 × 6), start +4, 11.5 Gy, non-GLP
[6] = UC Davis 2011, Rhesus (♂), 0.1 mg/kg (q24 × 6), start +4, 11.5 Gy, non-GLP, vs vehicle

Chain of Human LPA2 (Q9HBW0 whole entry): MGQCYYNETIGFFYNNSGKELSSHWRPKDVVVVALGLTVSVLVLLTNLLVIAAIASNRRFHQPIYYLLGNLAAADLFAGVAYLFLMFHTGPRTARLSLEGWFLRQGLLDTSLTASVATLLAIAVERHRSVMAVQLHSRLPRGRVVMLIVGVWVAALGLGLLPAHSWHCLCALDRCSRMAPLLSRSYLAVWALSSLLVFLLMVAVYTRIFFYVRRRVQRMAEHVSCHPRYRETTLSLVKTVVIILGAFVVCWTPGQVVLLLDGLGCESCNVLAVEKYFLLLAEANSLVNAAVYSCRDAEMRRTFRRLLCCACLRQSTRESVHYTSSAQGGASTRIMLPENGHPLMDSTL
T1 sequence (Q99677 whole entry): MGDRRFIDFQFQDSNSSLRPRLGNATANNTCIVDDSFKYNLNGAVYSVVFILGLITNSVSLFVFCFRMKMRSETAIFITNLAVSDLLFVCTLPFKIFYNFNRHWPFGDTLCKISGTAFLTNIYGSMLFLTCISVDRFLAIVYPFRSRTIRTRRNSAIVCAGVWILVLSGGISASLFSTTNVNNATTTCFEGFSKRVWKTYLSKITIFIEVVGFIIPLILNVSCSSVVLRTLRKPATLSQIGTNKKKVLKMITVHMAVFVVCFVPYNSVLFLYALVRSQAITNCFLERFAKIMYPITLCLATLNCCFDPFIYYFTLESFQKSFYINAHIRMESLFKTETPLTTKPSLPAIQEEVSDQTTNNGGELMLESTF
Chain of LPA2 receptors from the rhesus (I2CXV3 1-351): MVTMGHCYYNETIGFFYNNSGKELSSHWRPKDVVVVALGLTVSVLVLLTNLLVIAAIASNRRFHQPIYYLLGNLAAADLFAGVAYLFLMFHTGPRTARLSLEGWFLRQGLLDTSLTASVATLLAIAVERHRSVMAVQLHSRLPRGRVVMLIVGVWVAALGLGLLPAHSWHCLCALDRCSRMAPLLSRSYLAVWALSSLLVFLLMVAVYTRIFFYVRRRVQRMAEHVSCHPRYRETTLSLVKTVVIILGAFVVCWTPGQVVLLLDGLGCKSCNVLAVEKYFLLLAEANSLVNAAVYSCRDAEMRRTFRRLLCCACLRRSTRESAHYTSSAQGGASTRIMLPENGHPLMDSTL

## CCCCCCCC/C=C\CCCCCCCCOP(O)(O)=S [Rx100, (Z)—O-octadec-9-en-1-yl O,O-dihydrogen phosphorothioate]
[1]
  EC50: 104 nM
[1]; read-out: Emax (% of LPA)
  Emax: 100%
Human LPA2
  EC50: 124 nM
Human LPA2; read-out: Emax (% of LPA)
  Emax: 100%
[2]; [5]
  Survival Day 10, Rx100 arm (survivors/animals): 2/9
  Survival Day ≧30, Rx100 arm (survivors/animals): 6/9
[2]; [6]
  Survival Advantage Day 10: 8%
  Survival Advantage Day ≧30: 37%
[3]; single cell under Day 10/Day ≧30
  Survival, Rx100 arm (survivors/animals): 10/14
[3]; single cell under Day 10/Day ≧30, vs vehicle
  Survival advantage: 42%
Human LPA4
  EC50: > 5000 nM
Human LPA4; CHO, read-out: Emax (% of LPA)
  Emax: 97%

## CCCCCCCC/C=C\CCCCCCCCOP(O)(O)=S [Rx100.L-Lysine, (Z)—O-octadec-9-en-1-yl O,O-dihydrogen phosphorothioate]
Cynomolgus monkeys; 10 mg/kg/day SC, 7 days
  effects on body weights: No effects
  signs in repeated dose phase: intermittent food consumption and adverse effects at the injection sites
Cynomolgus monkeys; single SC dose 75 mg/kg
  clinical signs: animals became hunched and were obviously in pain
Cynomolgus monkeys; single SC doses up to and including 25 mg/kg
  treatment related effects: no meaningful treatment related effects
[2]; 0.1 mg/kg/day×6 doses, 19 male Rhesus macaque, normally LD70/34 dose of X-ray radiation
  increase in survival: 37%
Male Sprague-Dawley rats; 1.81 mg/kg
  effects on respiratory parameters: No statistically significant or biologically meaningful effects
Male Sprague-Dawley rats; 6.33 mg/kg
  increase in respiratory rates: 68%
  reduction in tidal volume: 29%
  respiratory values 24 hours post dose: essentially normal
Male Sprague-Dawley rats; 18.1 mg/kg
  increase in respiratory rates: 65%
  reduction in tidal volume: 32%
Male Sprague-Dawley rats; 18.1 mg/kg, reduced in magnitude
  respiratory values 24 hours post dose: still showed effects
Male Sprague-Dawley rats; male, Sprague-Dawley, rat, in vivo, oral, 24 h
  dose with no adverse effects on the respiratory system: 1.81 mg/kg
[4]
  Solubility in water: soluble in water
[4]; 3% polyethylene glycol 200, 1% ethanol, 10 mM monosodium phosphate, balance water
  Solubility in the simulated formulation solvent: soluble
[4]; listed as L-Lysine salt
  Solubility in water: soluble

Source: patent US20170226139A1, “CRYSTALLINE SALTS OF (Z)-O-OCTADEC-9-EN-1-YL O,O-DIHYDROGEN PHOSPHOROTHIOATE” (priority 2013, published 2017)
